From patent US12252493B2, “Imidazo[1,2-c]pyrimidine derivatives as PRC2 inhibitors for treating cancer” (Mirati Therapeutics, Inc., priority 2019, dated 2025)
Where two headings read alike, the source gives them in different places.

How the values were obtained:
[1] = tested on: Karpas 422 cells expressing mutant EZH2 (Y641N); experiment: Karpas 422 cell viability (Cell Titre Glo) assay; format: cell-based, human; settings: CTG viability, time point (Day 4, Day 7 or Day 11) not given, read-out: IC50, Inhibiting Proliferation of Cells Expressing an Activating Mutant Form of EZH2
Experimental: Karpas 422 cell line is a human B cell non-Hodgkin's lymphoma cell line established from a patient having DLBCL. This EZH2 heterozygotic cell line expresses a mutant form of EZH2 enzyme (Y641N) that increases histone H3 methylation and this mutation has been implicated in the tumorgenesis of lymphomas, such as DLBCL.
Karpas 422 cells (PHE cat no., 06101702) were cultured in RPMI medium supplemented with 20% fetal bovine serum and 1% penicillin/1% streptomycin and plated at a density of 1000 cells/90 μl/well in 96 well white assay plates. A dose response curve for compounds of the present invention was determined by adding a 10 μl aliquot of stock solutions of varying concentrations of compounds to the same medium in each well, over a concentration range of 10 μM using 3-fold dilutions to a final concentration of 1.5 nM. The plates were incubated at 37° C. for predetermined time periods, Day 4, Day 7, or Day 11, and the viability of the cells was measured using a CTG assay kit (Cell Titre Glo; Promega cat. no G7573) on Day 4 and Day 7 in accordance with the manufacturer's instructions.
For the viability assay for the Day 11 plates, the plates were subjected to centrifugation at 1100 rpm for five minutes on Day 7 and the supernatant was removed by aspiration. The cells were resuspended in 90 μl aliquot of the appropriate growth medium lacking the compound followed by addition of 10 μl of a 10× stock of the same compound at the same concentration. The viability of the Day 11 cells was measured using the CTG assay kit described above in accordance with the manufacturer's instructions. The IC50 values for each compound at each predetermined time point were calculated using Graph pad PRISM software and the results are shown in Table 7. Key: A=≤250 nM; B=>250 nM-≤500 nM; C=>500 nM-≤5 μM and N.D.=not determined.

[2] = biological target: purified human, His-tagged PRC2 complex (Homo sapiens (Human), UniProt O75530); experiment: Hot Spot HMT assay of PRC2 enzymatic activity (tritiated methyl transfer from SAM to core histone); format: biochemical; settings: 10 nM purified PRC2 complex, 0.05 mg/ml core histone H3, 1 uM 3H-SAM, 1 hr at 30° C.; read-out: IC50, Inhibition of PRC2-mediated Enzymatic Activity
Experimental: Ten-point dose-response curves for compounds of the present invention were determined using a Hot Spot HMT assay (Reaction Biology Corp; see Horiuchi et al., Assay Drug Dev Technol. (2013) 4: 227-236 doi: 10.1089/adt.2012.480). The assay uses purified human, His-tagged PRC2 complex, including N-terminal His-tagged EZH2 enzyme, N-terminal Flag-tagged embryonic ectoderm development protein (EED), N-terminal His-tagged suppressor of zeste 12 (SUZ12), N-terminal His-tagged AEBP2, and N-terminal His-tagged RbAp48. In this assay, the transfer of the tritiated methyl group from radiolabeled S-adenosyl methionine (SAM) to purified core histone protein by EZH2 is quantitated after filtration to determine the activity of the core PRC2 complex in the presence and absence of compound.
Briefly, compounds of the present invention were solubilized in DMSO and a series of 10, three-fold serial dilutions were made for each compound in 15% DMSO. The initial starting concentration for the serial dilutions of each compound was 1.0 μM. Control samples lacking compound, EZH2 enzyme or various reaction components also were prepared and processed in parallel with compound test samples. SAH (S-(5-adenosyl)-L-homocysteine) was used as a positive control for assay validation.
An aliquot of each serial dilution of test compound was added to deep 384 well plate using Acoustic Technology instrument (Echo 550, LabCyte) containing reaction buffer (50 mM Tris-HCl (pH 8.)), 0.01% Brij35, 1 mM EDTA, 1 mM DTT, 1 mM PMSF and 1% DMSO), 10 nM purified PRC2 complex and 0.05 mg/ml core histone H3 in a 5 μl volume. The reaction was mixed gently and then pre-incubated for 20 min at 30° C. The enzymatic reaction was initiated by adding 1 uM S-Adenosyl-L-[methyl ^3H]methionine and incubated for 1 hr at 30° C. After 1 hr, the reaction product was detected using a filter binding method and the amount of tritiated H3 core histone was quantitated using a scintillation counter. The IC50 value for each compound was determined from each 10-point dose-response curve using GraphPad Prism software and the results for exemplary compounds of Formula (I) are shown in Table 5. Key: A=≤250 nM; B=>250 nM—≤500 nM; and C=>500 nM—≤2 μM.

[3] = tested on: PRC2-mediated histone H3 methylation (H3 Lys27 trimethylation) in Pfeiffer cells expressing mutant EZH2 (A677G); experiment: Tri-Methyl Histone H3 (Lys 27) sandwich ELISA in Pfeiffer cells; format: cell-based, human; settings: Pfeiffer cells, 96 hours incubation, ELISA, read-out: IC50, Inhibition of EZH2-mediated Histone H3 Trimethylation
Excerpt: The Pfeiffer cell line was established from a […] from a patient having metastatic diffuse large B-cell lymphoma (DLBCL). This cell line expresses a mutant form of the EZH2 enzyme (A677G) that results in enhanced EZH2 activity leading to increased methylation of histone H3 Lys27. Increased trimethylation of histone H3 Lys27 is believed to be implicated in tumorgenesis and poor clinical prognosis in lymphomas (McCabe et al., (2012) Nature 492:108-112).
Inhibition of PRC2-mediated histone H3 methylation by compounds of Formula (I) was measured by ELISA using a Tri-Methyl Histone H3 (Lys 27) Sandwich ELISA Kit (Cell Signaling Tech #7866C) in accordance with the manufacturer's instructions. Briefly, Pfeiffer cells were cultured in RPMI medium supplemented with 10% fetal bovine serum and 1% penicillin and 1% streptomycin in 96 well culture plates at 37° C. to a density of 8000 cells/90 μl/well and the cells were harvested. A series of 3-fold serial dilutions of each test compound of Formula (I) were prepared in RPMI medium and added to the cells at final concentrations ranging from 1 μM to 0.15 nM. The plates were incubated at 37° C. for 96 hours.
After incubation, the cells were pelleted by centrifugation in a pre-cooled 4° C. rotor at 1,100 rpm for 10 min and the supernatant was removed by aspiration. The cell pellet was resuspended in 55 μl of Lysis Buffer (0.4M HCl) and incubated on ice with periodic shaking for 30 minutes. The lysed cells were subjected to centrifugation at 4,200 rpm for 10 min at 4° C. and the supernatant containing acid-soluble proteins was collected and the remainder discarded. The acid-soluble proteins were brought to a neutral pH by the addition of 20 μl of Neutralization Buffer (1 M Sodium phosphate, dibasic (pH 12.5), 2.5 mM DTT and 1 mM PMSF) and the neutralized lysates were analyzed by ELISA.
A 65 μl aliquot of each cell lysate was added to a well of a microwell strip, the microwells were sealed using tape and incubated either at 37° C. for two hours or at 4° C. overnight. After incubation, the tape was removed at the microwells were washed four times using 200 μl of 1× Wash Buffer. To each washed microwell, a 100 μl aliquot of an anti-trimethyl histone H3 Lys27 Detection Antibody solution was added and the microwells were incubated at 37° C. for one hour. The Detection Antibody solution was removed by aspiration and the wells were washed four times each using 200 μl of 1× Wash Buffer.
A 100 μl aliquot of an HRP-linked secondary antibody was added to each well, the wells were sealed with tape and incubated at 37° C. for 30 min. The HRP-linked secondary antibody solution was removed by aspiration and the wells were washed four times using 200 μl of 1× Wash Buffer. A 100 μl aliquot of a TMB substrate was added to each well, the wells were sealed with tape and incubated at 37° C. for 10 min or 25° C. for 30 min. The reaction was stopped by the addition of 100 μl aliquot of a STOP solution and the plate was shaken briefly. The degree of histone H3 trimethylation was determined using a spectrophotometric readout by measuring the absorbance at 450 nm and then calculating the amount of trimethylated histone H3. Key: A=≤250 nM; B=>250 nM-≤500 nM; and C=>500 nM-≤5 μM.

Sequence of purified human, His-tagged PRC2 complex (Q15910 whole entry): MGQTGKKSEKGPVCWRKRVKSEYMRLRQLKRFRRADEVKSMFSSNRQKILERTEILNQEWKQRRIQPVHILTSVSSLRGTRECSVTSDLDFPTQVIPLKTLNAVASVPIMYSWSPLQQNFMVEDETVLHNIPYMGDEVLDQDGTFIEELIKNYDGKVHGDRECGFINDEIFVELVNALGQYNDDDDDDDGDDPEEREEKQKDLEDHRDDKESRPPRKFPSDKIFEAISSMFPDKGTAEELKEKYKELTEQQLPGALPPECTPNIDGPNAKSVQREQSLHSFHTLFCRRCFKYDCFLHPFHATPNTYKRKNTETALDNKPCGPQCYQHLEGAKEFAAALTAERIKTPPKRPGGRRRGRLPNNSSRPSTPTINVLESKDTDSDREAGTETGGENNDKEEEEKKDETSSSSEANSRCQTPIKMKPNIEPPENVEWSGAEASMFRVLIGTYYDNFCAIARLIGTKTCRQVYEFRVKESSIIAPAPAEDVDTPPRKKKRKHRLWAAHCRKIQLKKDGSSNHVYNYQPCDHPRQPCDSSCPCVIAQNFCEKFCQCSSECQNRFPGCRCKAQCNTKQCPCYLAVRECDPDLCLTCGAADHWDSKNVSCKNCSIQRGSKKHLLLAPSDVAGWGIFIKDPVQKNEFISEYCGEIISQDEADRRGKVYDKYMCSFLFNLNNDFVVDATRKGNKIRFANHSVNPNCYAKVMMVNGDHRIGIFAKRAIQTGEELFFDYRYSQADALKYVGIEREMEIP
Sequence of purified human, His-tagged PRC2 complex (O75530 whole entry): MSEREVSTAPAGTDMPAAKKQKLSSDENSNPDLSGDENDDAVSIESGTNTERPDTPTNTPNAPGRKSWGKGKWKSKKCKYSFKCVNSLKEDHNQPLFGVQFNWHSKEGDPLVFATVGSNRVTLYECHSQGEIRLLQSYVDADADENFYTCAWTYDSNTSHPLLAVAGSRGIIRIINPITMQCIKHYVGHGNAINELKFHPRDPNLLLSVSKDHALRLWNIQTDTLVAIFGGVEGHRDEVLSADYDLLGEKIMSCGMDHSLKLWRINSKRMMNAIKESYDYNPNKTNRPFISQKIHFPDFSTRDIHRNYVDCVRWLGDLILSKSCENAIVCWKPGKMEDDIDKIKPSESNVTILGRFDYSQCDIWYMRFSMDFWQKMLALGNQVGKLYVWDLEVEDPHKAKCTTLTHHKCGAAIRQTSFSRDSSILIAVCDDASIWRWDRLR
Sequence of purified human, His-tagged PRC2 complex (Q15022 whole entry partner): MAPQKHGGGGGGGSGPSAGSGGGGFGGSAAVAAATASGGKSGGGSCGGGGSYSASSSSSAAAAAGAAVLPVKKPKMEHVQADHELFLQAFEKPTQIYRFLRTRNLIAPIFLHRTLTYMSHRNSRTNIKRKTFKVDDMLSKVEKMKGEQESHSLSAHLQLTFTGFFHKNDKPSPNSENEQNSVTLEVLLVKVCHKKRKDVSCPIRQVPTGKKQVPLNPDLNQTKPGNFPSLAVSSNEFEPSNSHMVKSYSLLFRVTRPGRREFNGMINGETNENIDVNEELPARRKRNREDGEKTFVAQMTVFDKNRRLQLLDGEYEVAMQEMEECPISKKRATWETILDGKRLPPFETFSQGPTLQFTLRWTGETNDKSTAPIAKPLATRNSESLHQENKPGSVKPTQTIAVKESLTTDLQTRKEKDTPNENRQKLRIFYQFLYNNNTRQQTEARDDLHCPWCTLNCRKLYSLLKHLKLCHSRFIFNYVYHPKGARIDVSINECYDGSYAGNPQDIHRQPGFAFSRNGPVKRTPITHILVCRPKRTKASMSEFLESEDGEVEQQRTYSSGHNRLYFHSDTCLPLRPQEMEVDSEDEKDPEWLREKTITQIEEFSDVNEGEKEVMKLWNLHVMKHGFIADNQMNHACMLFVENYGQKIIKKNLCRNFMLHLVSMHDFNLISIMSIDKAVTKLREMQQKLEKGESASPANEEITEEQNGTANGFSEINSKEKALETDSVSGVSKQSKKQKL
Sequence of purified human, His-tagged PRC2 complex (Q6ZN18 whole entry partner): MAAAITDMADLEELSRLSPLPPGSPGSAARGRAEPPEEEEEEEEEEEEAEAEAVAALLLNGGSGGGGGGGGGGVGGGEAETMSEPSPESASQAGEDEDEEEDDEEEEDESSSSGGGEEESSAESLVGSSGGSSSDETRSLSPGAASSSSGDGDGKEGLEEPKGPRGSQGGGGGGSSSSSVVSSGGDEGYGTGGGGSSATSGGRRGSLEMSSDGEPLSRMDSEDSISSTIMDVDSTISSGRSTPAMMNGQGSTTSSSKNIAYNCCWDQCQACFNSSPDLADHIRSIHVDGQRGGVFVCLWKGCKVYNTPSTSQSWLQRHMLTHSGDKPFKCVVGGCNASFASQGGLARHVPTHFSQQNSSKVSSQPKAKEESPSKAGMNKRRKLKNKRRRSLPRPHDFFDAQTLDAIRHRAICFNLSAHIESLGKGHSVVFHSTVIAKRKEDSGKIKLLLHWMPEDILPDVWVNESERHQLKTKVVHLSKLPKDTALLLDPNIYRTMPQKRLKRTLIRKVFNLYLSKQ
Sequence of purified human, His-tagged PRC2 complex (Q09028 whole entry partner): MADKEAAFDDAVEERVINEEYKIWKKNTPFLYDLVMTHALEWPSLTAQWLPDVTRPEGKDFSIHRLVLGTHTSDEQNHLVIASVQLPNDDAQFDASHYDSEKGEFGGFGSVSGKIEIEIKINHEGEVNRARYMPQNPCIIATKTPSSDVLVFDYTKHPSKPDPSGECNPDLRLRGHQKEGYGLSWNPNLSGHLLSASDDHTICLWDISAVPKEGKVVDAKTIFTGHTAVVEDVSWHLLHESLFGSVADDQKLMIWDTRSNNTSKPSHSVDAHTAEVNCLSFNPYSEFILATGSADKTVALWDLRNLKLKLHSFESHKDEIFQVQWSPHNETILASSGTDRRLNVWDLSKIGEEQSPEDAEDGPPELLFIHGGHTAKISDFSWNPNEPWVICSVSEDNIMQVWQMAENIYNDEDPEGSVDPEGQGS

## Cn1nccc1-c1cnc(NCc2c(F)ccc3c2CCO3)n2cc(CN3CCC3)nc12 [Example 29, 2-(azetidin-1-ylmethyl)-N-((5-fluoro-2,3-dihydrobenzofuran-4-yl)methyl)-8-(1-methyl-1H-pyrazol-5-yl)imidazo[1,2-c]pyrimidin-5-amine]
[1]; Homo sapiens
  IC50: 500 to 5000 nM
[2]
  IC50: 500 to 2000 nM
[3]; Homo sapiens
  IC50: 500 to 5000 nM

## Cc1cc(-c2cnc(NCc3c(F)ccc4c3CCO4)n3cc(CNC4CC4)nc23)n(C)n1 [Example 33, 2-((cyclopropylamino)methyl)-8-(1,3-dimethyl-1H-pyrazol-5-yl)-N-((5-fluoro-2,3-dihydrobenzofuran-4-yl)methyl)imidazo[1,2-c]pyrimidin-5-amine]
[1]; Homo sapiens
  IC50: 250 to 500 nM
[2]
  IC50: 500 to 2000 nM
[3]; Homo sapiens
  IC50: 250 to 500 nM

## Cc1cc(-c2cnc(NCc3cccc4c3CCO4)n3cc(CN)nc23)n(C)n1 [Example 23, 2-(aminomethyl)-N-((2,3-dihydrobenzofuran-4-yl)methyl)-8-(1,3-dimethyl-1H-pyrazol-5-yl)imidazo[1,2-c]pyrimidin-5-amine]
[1]; Homo sapiens
  IC50: 500 to 5000 nM
[2]
  IC50: 500 to 2000 nM
[3]; Homo sapiens
  IC50: 500 to 5000 nM

## Cc1cc(CN(C)C)ccc1-c1cnc(NCc2c(F)ccc3c2CCO3)n2cc(C(C)N)nc12 (stereo not drawn) [Example 37, 2-(1-aminoethyl)-8-(4-((dimethylamino)methyl)-2-methylphenyl)-N-((5-fluoro-2,3-dihydrobenzofuran-4-yl)methyl)imidazo[1,2-c]pyrimidin-5-amine]
[1]; Homo sapiens
  IC50: < 250 nM
[2]
  IC50: < 250 nM
[3]; Homo sapiens
  IC50: < 250 nM

## Cc1cccc(-c2cnc(NCc3c(F)ccc4c3CCO4)n3cc(CN)nc23)c1 [Example 21, 2-(aminomethyl)-N-((5-fluoro-2,3-dihydrobenzofuran-4-yl)methyl)-8-(m-tolyl)imidazo[1,2-c]pyrimidin-5-amine]
[1]; Homo sapiens
  IC50: 500 to 5000 nM
[2]
  IC50: 500 to 2000 nM
[3]; Homo sapiens
  IC50: 500 to 5000 nM

## Cc1cc(-c2cnc(NCc3c(F)ccc4c3CCO4)n3cc(CNC4CCC4)nc23)n(C)n1 [Example 30, 2-((cyclobutylamino)methyl)-8-(1,3-dimethyl-1H-pyrazol-5-yl)-N-((5-fluoro-2,3-dihydrobenzofuran-4-yl)methyl)imidazo[1,2-c]pyrimidin-5-amine]
[1]; Homo sapiens
  IC50: < 250 nM
[2]
  IC50: 500 to 2000 nM
[3]; Homo sapiens
  IC50: 250 to 500 nM

## Cc1c(F)cccc1-c1cnc(NCc2c(F)ccc3c2CCO3)n2cc(CN)nc12 [Example 17, 2-(aminomethyl)-N-((5-fluoro-2,3-dihydrobenzofuran-4-yl)methyl)-8-(3-fluoro-2-methylphenyl)imidazo[1,2-c]pyrimidin-5-amine]
[1]; Homo sapiens
  IC50: 500 to 5000 nM
[2]
  IC50: 500 to 2000 nM
[3]; Homo sapiens
  IC50: 500 to 5000 nM

## NCc1cn2c(NCc3c(F)ccc4c3CCO4)ncc(-c3ccccc3Cl)c2n1 [Example 22, 2-(aminomethyl)-8-(2-chlorophenyl)-N-((5-fluoro-2,3-dihydrobenzofuran-4-yl)methyl)imidazo[1,2-c]pyrimidin-5-amine]
[1]; Homo sapiens
  IC50: 500 to 5000 nM
[2]
  IC50: 500 to 2000 nM
[3]; Homo sapiens
  IC50: 500 to 5000 nM

## Cc1cc(-c2cnc(NCc3c(F)ccc4c3CCO4)n3cc(CN(CCS(=O)(=O)F)CCS(=O)(=O)F)nc23)n(C)n1 [Example 28, 2,2′-(((8-(1,3-dimethyl-1H-pyrazol-5-yl)-5-(((5-fluoro-2,3-dihydrobenzofuran-4-yl)methyl)amino)imidazo[1,2-c]pyrimidin-2-yl)methyl)azanediyl)bis(ethane-1-sulfonylfluoride)]
[1]
  IC50: 500 to 5000 nM
[2]
  IC50: 500 to 2000 nM
[3]
  IC50: 500 to 5000 nM

## Cc1cc(-c2cnc(NCc3c(F)ccc4c3CCO4)n3cc(C(C)N)nc23)n(C)n1 (single isomer, unassigned) [Example 11, 2-(1-aminoethyl)-8-(1,3-dimethyl-1H-pyrazol-5-yl)-N-((5-fluoro-2,3-dihydrobenzofuran-4-yl)methyl)imidazo[1,2-c]pyrimidin-5-amine]
[1]; Homo sapiens
  IC50: < 250 nM
[2]
  IC50: 500 to 2000 nM
[3]; Homo sapiens
  IC50: < 250 nM

## CC(N)c1cn2c(NCc3c(F)ccc4c3CCO4)ncc(-c3cc(C#N)nn3C)c2n1 (stereo not drawn) [Example 40, 5-(2-(1-aminoethyl)-5-(((5-fluoro-2,3-dihydrobenzofuran-4-yl)methyl)amino)imidazo[1,2-c]pyrimidin-8-yl)-1-methyl-1H-pyrazole-3-carbonitrile]
[1]; Homo sapiens
  IC50: < 250 nM
[2]
  IC50: < 250 nM
[3]; Homo sapiens
  IC50: < 250 nM

## COc1ccc(-c2cnc(NCc3c(F)ccc4c3CCO4)n3cc(CN)nc23)c(C)n1 [Example 20, 2-(aminomethyl)-N-((5-fluoro-2,3-dihydrobenzofuran-4-yl)methyl)-8-(6-methoxy-2-methylpyridin-3-yl)imidazo[1,2-c]pyrimidin-5-amine]
[1]; Homo sapiens
  IC50: < 250 nM
[2]
  IC50: < 250 nM
[3]; Homo sapiens
  IC50: 250 to 500 nM
